In patent US20110028554A1, “PHARMACEUTICAL COMPOSITIONS COMPRISING DIIODOTHYRONINE AND THEIR THERAPEUTIC USE” (UNIVERSITE JOSEPH FOURIER, priority 2007, published 2011):

Key:
[1] = Growth rate (body weight) of Wistar rats with subcutaneous continuous-release pellet; format: in vivo; conditions: high dosage 25 μg/100 g BW
Protocol: (§1) Adult male rat bred in the animal room facilities of Laboratory of Fundamental and Applied. Bioenergetics (Wistar strain) or purchased from Charles-River Laboratories, Domaine des oncins, L'ARBRESLE France [(genetically obese normoglycemic (Zucker or Fa/Fa) or diabetic (ZDF)] were caged individually in stainless steel hanging cages and maintained in a 22° C., 50±10% relative humidity and 12 h:12 h light:dark environment. All animals were fed ad libitum with a standard rat chow (Safe A04, Villemoisson, France) and tap water. Body mass and food intake were recorded twice/thrice a week and fresh food was provided, at the same time to ensure minimal disturbance to the animals' food, behavior.
(§2) Eight-week old rats (300 g±10 g) were anesthetized by simultaneous intraperitoneal injection of diazepam 4 mg/kg and ketamine 100 mg/kg. In order to maintain body temperature during the surgery (10 min), animals were placed on a warm blanket. After interscapular shaving, a small incision of 0.5 cm of the skin allows the subcutaneous implantation of a small pellet (containing rT3 or 3′,3-T2) with a 10-gauge precision trochar. The pellets, manufactured by Innovative Research of America (Sarasota, Fla., USA) are constituted of a biodegradable matrix that effectively and continuously release the active product in the animal.
(§3) 3-5 diiodothyronine (3-5 T2) or 3-3′diiodothyronine (3-3′ T2) were used at different doses (5, 0.5, or 0.1 mg/pellet) were implanted in order to provide a continuous and constant drug delivery over 60 days (which represents 25 μg, 2.5 μg or 0.5 μg/day/100 g BW).

liver mitochondria = assay: Liver mitochondrial oxygen consumption (JO2) of treated Wistar rats; format: in vivo; conditions: high dosage 25 μg/100 g BW
Protocol: (§4) All measurements were performed using mitochondria (1.0 mg mitochondrial protein/ml) incubated with various substrates: • GM: glutamate/malate (5 mM/2.5 mM) • SR: succinate/rotenone (5 mM/5 μM), • GMS: glutamate/malate/succinate (5 mM/2.5 mM/5 mM), • Palm: palmitoyl carnitine (55 μM), • Octa: octanoyl carnitine (100 μM), • TMPD/AsC: TMPD/ascorbate (0.5 mM/0.5 mM), and • TMPD/AsC/DNP: TMPD/ascorbate/DNP (0.5 mM/0.5 mM/75 μM).
JO2 was recorded in the presence of the substrate and following the addition of 1 mM ADP (adenosine diphosphate) (state 3).
The oligomycin was added to the mitochondrial suspension to determine the non-phosphorylating respiratory-rate (state 4).
(§5) The major part of the liver and the red part of each quadriceps were rinsed, and chopped into isolation medium (250 mM sucrose, 20 mM Tris-HCl and 1 mM EGTA-Tris, pH 7.4). Nuclei and cell debris were removed, by centrifugation at 800 g for 10 min. Mitochondria were then isolated from the supernatant by spinning twice at 8,000 g for 10 minutes. The mitochondrial pellet was resuspended in 0.5 ml of isolation buffer and kept on ice. Mitochondrial protein was measured by the bicinchoninic acid method (Pierce, Rockford, Ill.). The final mitochondrial suspensions were maintained on ice and were used for measurements of oxygen consumption rate and reactive oxygen species (ROS) production.
(§6) The rate of mitochondrial oxygen consumption (JO2) was measured at 30° C. in an incubation chamber with a Clark-type O2 electrode filled with 2 ml of incubation medium (125 mM KCl, 10 mM Pi-Tris, 20 mM Tris-HCl, 0.1 mM EGTA, pH 7.2). All measurements were performed using mitochondria (1.0 or 0.2 mg mitochondrial protein/ml for liver and skeletal muscle) incubated either with various substrates: glutamate/malate (5 mM/2.5 mM) and succinate (5 mM), alone or in combination, palmitoyl carnitine (55 μM) and octanoyl carnitine (100 μM). For each substrate, JO2 was recorded in the presence of the substrate alone (State 2) and following the addition of 1 mM ADP (state 3). Oligomycin (1.25 μg/mg protein) was added to the mitochondrial suspension to determine the non-phosphorylating respiratory rate (state 4). The incubation medium was constantly stirred with a built-in electromagnetic stirrer and bar flea. The efficiency of the mitochondrial oxidative phosphorylation was assessed by the state 3/state 4 ratio which measures the degree of control imposed on oxidation by phosphorylation (respiratory control ratio, RCR).

[2] = Food intake of Wistar rats; format: in vivo; conditions: high dosage 25 μg/100 g BW
Protocol: as §1, §2, §3

muscle mitochondria = assay: Muscle mitochondrial oxygen consumption (JO2) of treated Wistar rats; format: in vivo; conditions: high dosage 25 μg/100 g BW
Protocol: as §4, with “(0.2” for “(1.0”
JO2 was recorded in the presence of the substrate and following the addition of 1 mM ADP (state 3).
The oligomycin was added to the mitochondrial suspension to determine the non-phosphorylating respiratory rate (state 4).
as §5, §6

[3] = Body composition (adipose tissues, skeletal muscles, brown adipose tissue) of Wistar rats; format: in vivo; conditions: high dosage 25 μg/100 g BW
Description: (§7) At the end of the experimental period, animals were sacrificed by decapitation, in order to avoid the well-known effects of general anesthetics on mitochondrial metabolism. Blood, samples were immediately collected and plasma was frozen for subsequent determination of serum metabolites and hormones. Liver, muscles and fat depots were quickly excised and weighed. Liver median lobe was rapidly freeze-clamped. Muscles (plantaris, soleus and gastrocnemius) were frozen in isopentane precooled in liquid nitrogen. Mesenteric fat consisted, of adipose tissue surrounding the gastro-intestinal tract from the gastro-oesophageal sphincter to the end of the rectum with special care taken in distinguishing and removing the pancreas. Retroperitoneal fat pad was taken as the distinct depot behind each kidney along the lumbar muscles. Epididymal fat consisted, of adipose tissue on top of the epididymis. For subcutaneous depot measurement, a rectangular piece of skin was taken on the right side of each animal from the median line of the abdomen between the spine and the right hip to the first rib. Interscapular brown adipose tissue was removed and dissected free from adjacent muscles and white adipose tissue. The heart ventricles, the right kidney and the spleen were also excised, weighed and frozen.

[4] = Plasmatic concentrations of glucose, triglycerides, cholesterol, FFA and HDL on the day of sacrifice; format: in vivo, Wistar, Zucker and ZDF rats; conditions: non-diabetic Wistar rats, 3,3′-T2 treatment (dose not printed in FIG. 15A legend)
Description: These measurements were done on venous blood of the rats the day of the sacrifice.
as §7
Glucose and 3-hydroxybutyrate (3-HB) were measured, enzymatically and non esterified fatty acid (NEFA) by colorimetric assay (Wako Chemicals).
Triglycerides and cholesterol were measured by classical routine automate apparatus.

[5] = test system: nuclear receptors of the thyroid hormones, TRα-1 and TRβ-1; conditions: literature; cited from earlier work

SMILES | Growth rate (body weight gain) vs placebo [1] | Liver mitochondrial respiratory rate, non-phosphorylating (state 4, oligomycin), vs placebo (liver mitochondria) | Liver mitochondrial respiratory rate, phosphorylating condition (state 3), vs placebo (liver mitochondria; all substrates) | Food intake vs placebo [2] | Muscle mitochondrial respiration, non-phosphorylating (state 4), vs placebo (muscle mitochondria) | Muscle mitochondrial respiration, phosphorylating (state 3), vs placebo (muscle mitochondria) | Brown adipose tissue weight vs placebo [3] | Fat masses, all localizations (retroperitoneal, epididymal, mesenteric, subcutaneous) vs placebo [3] | Muscle mass / lean body mass vs placebo [3] | Plasmatic glucose at the end of the treatment [4] | Binding to the nuclear receptors [5]
N[C@@H](Cc1ccc(Oc2ccc(O)c(I)c2)c(I)c1)C(=O)O [3,3′-T2, 3′,3-diiodothyronine] | did not show similar weight gain | substantially higher in the low 3,5-T2 group only | very significant increased respiratory rate | a biphasic effect was observed | failed to substantially affect | failed to substantially affect | significantly increased | significantly decreased | not affected | minor changes | –
N[C@@H](Cc1cc(I)c(Oc2ccc(O)c(I)c2)c(I)c1)C(=O)O [T3] | – | – | – | – | – | – | – | – | – | – | binds very efficiently
N[C@@H](Cc1cc(I)c(Oc2cc(I)c(O)c(I)c2)c(I)c1)C(=O)O [T4, Thyroxine] | – | – | – | – | – | – | – | – | – | – | binds less efficiently
